Source: ChEMBL document CHEMBL5055643, “Sophoraflavanone G Resensitizes ABCG2-Overexpressing Multidrug-Resistant Non-Small-Cell Lung Cancer Cells to Chemotherapeutic Drugs” (J Nat Prod, 2021)

Legend:
A549 [1] = test: Cytotoxicity against becatecarin-selected ABCG2-overexpressing human A549/Bec150 cells assessed as reduction in cell viability measured after 72 hrs by CCK8 assay; assay type: ADME, cell-based; conditions: A549, 72 h
NCI-H460 [2] = test: Chemo-sensitizing activity against human NCI-H460 cells assessed as reversal fold at 5 uM measured after 72 hrs in presence of mitoxantrone by CCK8 assay relative to control; assay type: functional
NCI-H460 [3] = test: Chemo-sensitizing activity against mitoxantrone-selected ABCG2-overexpressing human NCI-H460/MX20 cells assessed as reversal fold at 5 uM measured after 72 hrs in presence of topotecan by CCK8 assay relative to control; assay type: functional
NCI/ADR-RES = test: Chemo-sensitizing activity against ABCB1-overexpressing human NCI/ADR-RES cells assessed as reversal fold at 1 uM measured after 72 hrs in presence of paclitaxel by CCK8 assay relative to control; assay type: functional
A549 [4] = test: Chemo-sensitizing activity against becatecarin-selected ABCG2-overexpressing human A549/Bec150 cells assessed as reversal fold at 2 uM measured after 72 hrs in presence of mitoxantrone by CCK8 assay relative to control; assay type: functional
A549 [5] = test: Chemo-sensitizing activity against becatecarin-selected ABCG2-overexpressing human A549/Bec150 cells assessed as reversal fold at 5 uM measured after 72 hrs in presence of topotecan by CCK8 assay relative to control; assay type: functional
A549 [6] = test: Chemo-sensitizing activity against human A549 cells assessed as reversal fold at 1 uM measured after 72 hrs in presence of SN-38 by CCK8 assay relative to control; assay type: functional
A549 [7] = test: Chemo-sensitizing activity against human A549 cells assessed as reversal fold at 2 uM measured after 72 hrs in presence of SN-38 by CCK8 assay relative to control; assay type: functional
OVCAR-8 = test: Chemo-sensitizing activity against human OVCAR-8 cells assessed as reversal fold at 1 uM measured after 72 hrs in presence of colchicine by CCK8 assay relative to control; assay type: functional
KB-V1 [8] = test: Chemo-sensitizing activity against ABCB1-overexpressing human KB-V1 cells assessed as reversal fold at 1 uM measured after 72 hrs in presence of vincristine by CCK8 assay relative to control; assay type: functional
KB-V1 [9] = test: Chemo-sensitizing activity against ABCB1-overexpressing human KB-V1 cells assessed as reversal fold at 2 uM measured after 72 hrs in presence of paclitaxel by CCK8 assay relative to control; assay type: functional
HEK293 = test: Chemo-sensitizing activity against ABCB1-overexpressing human HEK293/MDR19 cells assessed as reversal fold at 1 uM measured after 72 hrs in presence of paclitaxel by CCK8 assay relative to control; assay type: functional
[10] = molecular target: T1, Broad substrate specificity ATP-binding cassette transporter ABCG2 (Homo sapiens, UniProt Q9UNQ0); test: Inhibition of ABCG2 in becatecarin-selected ABCG2-overexpressing human A549/Bec150 cells assessed as increase in intracellular mitoxantrone accumulation incubated for 1 hr in presence of mitoxantrone by flow cytometry; assay type: cell-based
T1 sequence (Q9UNQ0 whole entry): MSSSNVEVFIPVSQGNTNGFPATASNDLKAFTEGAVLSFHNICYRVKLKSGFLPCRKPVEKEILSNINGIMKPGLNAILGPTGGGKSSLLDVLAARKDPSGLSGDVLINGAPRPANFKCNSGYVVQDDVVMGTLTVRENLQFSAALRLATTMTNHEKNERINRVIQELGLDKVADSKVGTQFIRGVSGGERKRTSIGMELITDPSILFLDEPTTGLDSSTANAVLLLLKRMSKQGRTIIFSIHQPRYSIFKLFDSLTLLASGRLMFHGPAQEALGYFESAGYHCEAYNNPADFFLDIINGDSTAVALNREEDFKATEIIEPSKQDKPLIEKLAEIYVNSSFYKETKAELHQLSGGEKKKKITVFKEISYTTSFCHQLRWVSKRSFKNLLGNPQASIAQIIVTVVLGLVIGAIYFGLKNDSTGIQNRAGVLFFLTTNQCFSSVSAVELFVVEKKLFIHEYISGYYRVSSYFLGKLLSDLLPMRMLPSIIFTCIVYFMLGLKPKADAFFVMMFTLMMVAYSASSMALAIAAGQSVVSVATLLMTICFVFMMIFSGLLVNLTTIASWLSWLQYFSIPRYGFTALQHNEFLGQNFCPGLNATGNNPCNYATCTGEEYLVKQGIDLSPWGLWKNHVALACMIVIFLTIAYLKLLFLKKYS

[11] = Cytotoxicity against human NCI-H460 cells assessed as cell viability at 1 to 5 uM measured after 72 hrs by CCK8 assay; assay type: cell-based; conditions: dose 1-5 µM, read-out: Activity
[12] = Cytotoxicity against human A549 cells assessed as cell viability at 1 to 5 uM measured after 72 hrs by CCK8 assay; assay type: cell-based; conditions: dose 1-5 µM, read-out: Activity

C=C(C)[C@H](CC=C(C)C)Cc1c(O)cc(O)c2c1O[C@H](c1ccc(O)cc1O)CC2=O [SOPHORAFLAVANONE G]
IC50 (A549 [1]): 21.3 µM | fold change (FC) (NCI-H460 [2]): 2.2 | fold change (FC) (NCI-H460 [3]): 7.8 | fold change (FC) (NCI/ADR-RES): 1 | fold change (FC) (A549 [4]): 5.9 | fold change (FC) (A549 [5]): 2.9 | fold change (FC) (A549 [6]): 1 | fold change (FC) (A549 [7]): 1.1 | fold change (FC) (OVCAR-8): 1 | fold change (FC) (KB-V1 [8]): 1 | fold change (FC) (KB-V1 [9]): 1.2 | fold change (FC) (HEK293): 0.8 | IC50 [10]: 2290 nM | inhibition (INH) ([10]; human, a549, 1 h, time 1 hrs): Dose-dependent effect | viability at 72 h, 5 µM [11]: > 90% | viability at 72 h, up to 5 µM [12]: > 90%
